Measurements taken from US9504676B2, “Molecules inhibiting a metabolic pathway involving the Syk protein tyrosine kinase and method for identifying said molecules” (CENTRE NATIONAL DE LA RECHERCHE SCIENTIFIQUE, priority 2008, dated 2016).

System: Btk
Assay: Phosphorylation and FcεRI-induced kinase activity of Btk in RBL-2H3 cells
Type: cell-based, rat
Excerpt: To examine the functional similarities with G4G11, the inventors explored the biological effects of C-13 on mast cell activation. […] Similarly to the intrabody G4G11, C-13 inhibited the phosphorylation and FcεRI-induced kinase activity of Btk (FIG. 2A) and the phosphorylation of PLC-γ1 and PLC-γ2, the two PLC-γ isoforms expressed in mast cells (FIGS. 2A, C). PTK Lyn phosphorylates both Syk and Btk giving rise to the complete activation thereof and the subsequent phosphorylation of PLC-γ^18.
• 1) Chemical products and antibodies. A chemical bank of 3000 molecules (a varied subset) was acquired from ChemBridge, Inc. (San Diego, Calif.). Stocks of solutions of small molecules were prepared at a rate of 10 mM in DMSO (dimethylsulphoxide), except for C-13 (methyl 2-{5-[(3-benzyl-4-oxo-2-thioxo-1,3-thiazolidin-5-ylidene)methyl]-2-furyl}benzoate, ChemBridge ID No. 6197026) prepared in DMF (dimethylformamide). […] The binding of G4G11 with Syk was assessed by adding the 9E10 monoclonal antibody conjugated with HRP detecting the amino acid sequence EQKLISEEDLN of human c-myc protein located at the C-terminal end of the scFv fragment. To generate Syk mutants, targeted mutagenesis was used on GST:Syk 6-242 protein and the binding of G4G11 with the mutants was assessed in the presence of 5 μM of C-13. • 3) Cells, culture conditions and functional tests. […]

Q: Which “phosphorylation and FcεRI-induced kinase activity of Btk” value does the source give for `COC(=O)c1ccccc1-c1ccc(/C=C2/SC(=S)N(Cc3ccccc3)C2=O)o1` [Molecule C-13, methyl 2-{5-[(3-benzyl-4-oxo-2-thioxo-1,3-thiazolidin-5-ylidene)methyl]-2-furyl}benzoate] here?
A: inhibited
